In patent US6924302B2, “Substituted triazole diamine derivatives as kinase inhibitors” (Ortho McNeil Pharmaceutical, Inc., priority 2000, dated 2005) one finds IC50 data, which are given here for 27 compounds.

One assay relates to HCT-116 colon carcinoma. Briefly: Inhibition of Cell Proliferation (14C-thymidine incorporation), HCT-116. The class given is cell-based. The following applies: Homo sapiens, HCT-116 cell line. The procedure:
The ability of a test compound to inhibit the proliferation of cell growth was determined by measuring incorporation of ^14C-labelled thymidine into newly synthesized DNA within the cells. This method was used on cell lines derived from carcinomas originating from several tissues such as HeLa cervical adenocarcinoma (American Type Culture Collection (ATCC), Virginia, Cat. #CCL-2), A375 malignant melanoma (ATCC CRL-1619), SK-OV-3 ovarian adenocarcinoma (ATCC HTB-77) HCT-116 colon carcinoma (CCL-247), PC-3 prostate adenocarcinoma (ATCC CRL-1435), and MDA-MB-231 (Xenogen Corp.) In this way the effect of a compound on cell growth of cells with many different phenotypes can be determined. Cells were trypsinized and counted and 3000-8000 cells were added to each well of a 96-well CytoStar tissue culture treated scintillating microplate (Amersham #RPNQ0160) in complete medium in a volume of 100 μl. Cells were incubated for 24 hours in complete medium at 37° C. in an atmosphere containing 5% CO2. Next, 1 μl of test compound in 100% DMSO was added to the wells of the plate. DMSO only was added to control wells. Cells were incubated for 24 more hours in complete medium at 37° C. in an atmosphere containing 5% CO2. Methyl ^14C-thymidine 56 mCi/mmol (NEN #NEC568 or Amersham #CFA532) was diluted in complete medium and 0.2 uCi/well was added to each well of the CytoStar plate in a volume of 20 μl. The plate was incubated for 24 hours at 37° C. plus 5% CO2 in drug plus ^14C-thymidine. The contents of the plate were discarded into a ^14C radioactive waste container by inverting the plate and the plate was washed twice with 200 μl PBS. 200 μl of PBS is added to each well. The top of the plate was sealed with a transparent plate sealer and a white plate backing sealer (Packard #6005199) was applied to the bottom of the plate. The degree of methyl ^14C-thymidine incorporation was quantified on a Packard Top Count.
A general note: Incorporation of labelled thymidine or its analogues reports DNA synthesis.

The target of assay [1] is T1, Casein Kinase 1 (CK1 delta isoform) (Rattus norvegicus, UniProt Q06486).
T1 construct: a truncation at amino acid 318 of the C-terminal portion of the rat CK1 delta isoform; purchased New England Biolabs 6030; host or cells: E. coli
T1 sequence (Q06486 1-317): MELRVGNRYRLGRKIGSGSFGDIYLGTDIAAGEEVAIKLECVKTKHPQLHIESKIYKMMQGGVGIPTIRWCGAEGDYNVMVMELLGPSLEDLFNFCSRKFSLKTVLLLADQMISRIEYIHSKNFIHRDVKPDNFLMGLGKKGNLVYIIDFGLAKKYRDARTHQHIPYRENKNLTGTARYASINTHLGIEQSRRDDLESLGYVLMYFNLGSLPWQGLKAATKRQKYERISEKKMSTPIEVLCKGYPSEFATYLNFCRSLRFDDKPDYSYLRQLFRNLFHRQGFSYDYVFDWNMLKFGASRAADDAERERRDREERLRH
Briefly: Kinase Selectivity Assay Casein Kinase 1. The following applies: Tables 2a-2k, read-out: Caseine Kinase 1 IC50. Type of assay: biochemical. In short, it runs like this: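 Radiometric Flashplate format: ^33P-γ-ATP transfer to immobilized biotinylated peptide, 1 h, 30° C, 1% DMSO final, enzyme in 50 mM Tris-HCl pH=8.0 + 0.1% BSA. Duplicate 8-point dilution, 100 uM down to 10 pM. IC50 from % inhibition of plate max signal versus log conc.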

In the case of `Nc1nc(Nc2ccc(S(N)(=O)=O)cc2)nn1C(=O)c1c(F)cccc1F` [Cpd 1, 4-[[5-amino-1-(2,6-difluorobenzoyl)-1H-1,2,4-triazol-3-yl]amino]-benzenesulfonamide], the half-maximal inhibitory concentration (IC50) in the assay with HCT-116 colon carcinoma was determined as 254 nM.
On to `Nc1nc(Nc2ccc(S(N)(=O)=O)cc2)nn1C(=O)c1cccs1` [Cpd 14, 4-[[5-amino-1-(2-thienylcarbonyl)-1H-1,2,4-triazol-3-yl]amino]-benzenesulfonamide], for which the values for the half-inhibitory concentration (IC50) (in assay [1]; in the assay on HCT-116 colon carcinoma) were 348 nM and 1940 nM, respectively.
The corresponding values for `Nc1nc(Nc2ccc(S(N)(=O)=O)cc2)nn1C(=O)c1sccc1F` [Cpd 16, 4-[[5-amino-1-[(3-fluoro-2-thienyl)carbonyl]-1H-1,2,4-triazol-3-yl]amino]-benzenesulfonamide] are 214 nM and 213 nM.
As to `Nc1nc(Nc2ccc(S(N)(=O)=O)cc2)nn1C(=O)c1sccc1Cl` [Cpd 17, 4-[[5-amino-1-[(3-chloro-2-thienyl)carbonyl]-1H-1,2,4-triazol-3-yl]amino]-benzenesulfonamide], the half-maximal inhibitory concentration (IC50) is 643 nM in assay [1] and 309 nM in the assay on HCT-116 colon carcinoma.
Consider `Nc1nc(Nc2ccc(S(=O)(=O)N3CCCCC3)cc2)nn1C(=O)c1cccs1` [Cpd 23, N^3-[4-(1-piperidinylsulfonyl)phenyl]-1-(2-thienylcarbonyl)-1H-1,2,4-triazole-3,5-diamine], for which the figures for the half-maximal inhibitory concentration (IC50) (in assay [1]; in the assay with HCT-116 colon carcinoma) were 113 nM and 376 nM, respectively.
The corresponding values for `Nc1nc(Nc2ccc(S(N)(=O)=O)cc2)nn1C(=O)c1ccsc1` [Cpd 30, 4-[[5-amino-1-(3-thienylcarbonyl)-1H-1,2,4-triazol-3-yl]amino]-benzenesulfonamide] are 1540 nM and 1930 nM.
The corresponding values for `CCc1ccc(C(=O)n2nc(Nc3ccc(S(N)(=O)=O)cc3)nc2N)s1` [Cpd 32, 4-[[5-amino-1-[(5-ethyl-2-thienyl)carbonyl]-1H-1,2,4-triazol-3-yl]amino]-benzenesulfonamide] are 181 nM and 26 nM.
On to `Cc1nc(C)c(C(=O)n2nc(Nc3ccc(S(N)(=O)=O)cc3)nc2N)s1` [Cpd 34, 4-[[5-amino-1-[(2,4-dimethyl-5-thiazolyl)carbonyl]-1H-1,2,4-triazol-3-yl]amino]-benzenesulfonamide], for which the half-maximal inhibitory concentration (IC50) in assay [1] amounted to 182 nM; in the assay with HCT-116 colon carcinoma, 996 nM.
The compound `Nc1nc(Nc2ccc(S(N)(=O)=O)cc2)nn1C(=O)c1sccc1Br` [Cpd 35, 4-[[5-amino-1-[(3-bromo-2-thienyl)carbonyl]-1H-1,2,4-triazol-3-yl]amino]-benzenesulfonamide] registered an IC50 in the assay on HCT-116 colon carcinoma of 172 nM.
For `Nc1nc(Nc2ccc(S(N)(=O)=O)cc2)nn1C(=O)C1CCCC1` [Cpd 38, 4-[[5-amino-1-(cyclopentylcarbonyl)-1H-1,2,4-triazol-3-yl]amino]-benzenesulfonamide], the figures for the 50% inhibitory concentration (IC50) (in assay [1]; in the assay on HCT-116 colon carcinoma) were 6100 nM and 2270 nM, respectively.
The like results for `Nc1nc(Nc2ccc(S(N)(=O)=O)cc2)nn1C(=O)C1CCCCC1` [Cpd 39, 4-[[5-amino-1-(cyclohexylcarbonyl)-1H-1,2,4-triazol-3-yl]amino]-benzenesulfonamide] were, in that order, 4100 nM and 1410 nM.
Consider `CC(C)(C)c1ccc(C(=O)n2nc(Nc3ccc(S(N)(=O)=O)cc3)nc2N)s1` [Cpd 51, 4-[[5-amino-1-[[5-(1,1-dimethylethyl)-2-thienyl]carbonyl]-1H-1,2,4-triazol-3-yl]amino]-benzenesulfonamide], for which the 50% inhibitory concentration (IC50) in assay [1] is 223 nM.
Turning to `Cc1ccccc1C(=O)n1nc(Nc2ccc(S(N)(=O)=O)cc2)nc1N` [Cpd 57, 4-[[5-amino-1-(2-methylbenzoyl)-1H-1,2,4-triazol-3-yl]amino]-benzenesulfonamide], the IC50 turned out to be 14000 nM in assay [1] and 95 nM in the assay with HCT-116 colon carcinoma.
As to `CC(O)c1ccc(F)c(C(=O)n2nc(Nc3ccc(S(N)(=O)=O)cc3)nc2N)c1F` (centres unmarked) [Cpd 58, 4-[[5-amino-1-[2,6-difluoro-3-(1-hydroxyethyl)benzoyl]-1H-1,2,4-triazol-3-yl]amino]-benzenesulfonamide], the IC50 in assay [1] is 11200 nM; in the assay on HCT-116 colon carcinoma, 1270 nM.
The corresponding values for `Cc1ccc(F)c(C(=O)n2nc(Nc3ccc(S(N)(=O)=O)cc3)nc2N)c1Cl` [Cpd 69, 4-[[5-amino-1-(2-chloro-6-fluoro-3-methylbenzoyl)-1H-1,2,4-triazol-3-yl]amino]-benzenesulfonamide] are 16600 nM and 1720 nM.
The like results for `Nc1nc(Nc2ccc(S(N)(=O)=O)cc2)nn1C(=O)c1c(F)cccc1Cl` [Cpd 70, 4-[[5-amino-1-(2-chloro-6-fluorobenzoyl)-1H-1,2,4-triazol-3-yl]amino]-benzenesulfonamide] were, in that order, 35700 nM and 1580 nM.
Take `CN1CCN(c2ccc(Nc3nc(N)n(C(=O)c4c(F)cccc4F)n3)cc2)CC1` [Cpd 71, 1-(2,6-difluorobenzoyl)-N^3-[4-(4-methyl-1-piperazinyl)phenyl]-1H-1,2,4-triazole-3,5-diamine]: in assay [1], the IC50 is more than 100000 nM.
Consider `CNS(=O)(=O)c1ccc(Nc2nc(N)n(C(=O)c3c(F)ccc(C)c3F)n2)cc1` [Cpd 81, 4-[[5-amino-1-(2,6-difluoro-3-methylbenzoyl)-1H-1,2,4-triazol-3-yl]amino]-N-methyl-benzenesulfonamide], for which the IC50 is 6960 nM in assay [1] and 778 nM with HCT-116 colon carcinoma.
As to `CNS(=O)(=O)c1ccc(Nc2nc(N)n(C(=O)c3sccc3C)n2)cc1` [Cpd 82, 4-[[5-amino-1-[(3-methyl-2-thienyl)carbonyl]-1H-1,2,4-triazol-3-yl]amino]-N-methyl-benzenesulfonamide], in assay [1], the 50% inhibitory concentration (IC50) is 354 nM.
With `CCc1ccc(C(=O)n2nc(Nc3ccc(S(=O)(=O)NC)cc3)nc2N)s1` [Cpd 84, 4-[[5-amino-1-[(5-ethyl-2-thienyl)carbonyl]-1H-1,2,4-triazol-3-yl]amino]-N-methyl-benzenesulfonamide], the half-inhibitory concentration (IC50) in assay [1] is 188 nM.
As for `CCc1ccc(C(=O)n2nc(Nc3ccc(S(=O)(=O)NCCN(C)C)cc3)nc2N)s1` [Cpd 103, 4-[[5-amino-1-[(5-ethyl-2-thienyl)carbonyl]-1H-1,2,4-triazol-3-yl]amino]-N-[2-(dimethylamino)ethyl]-benzenesulfonamide], the half-maximal inhibitory concentration (IC50) in assay [1] was found to be 322 nM; with HCT-116 colon carcinoma it was 75 nM.
The like results for `Cc1ccsc1C(=O)n1nc(Nc2ccc(S(=O)(=O)NCCN(C)C)cc2)nc1N` [Cpd 104, 4-[[5-amino-1-[(3-methyl-2-thienyl)carbonyl]-1H-1,2,4-triazol-3-yl]amino]-N-[2-(dimethylamino)ethyl]-benzenesulfonamide] were, in that order, 624 nM and 41 nM.
For the compound `Cc1cc(C)c(C(=O)n2nc(Nc3ccc(NS(C)(=O)=O)cc3)nc2N)s1` [Cpd 108, N-[4-[[5-amino-1-[(3,5-dimethyl-2-thienyl)carbonyl]-1H-1,2,4-triazol-3-5 yl]amino]phenyl]-methanesulfonamide], the IC50 in assay [1] was 816 nM.
Turning to `Cc1ccsc1C(=O)n1nc(Nc2ccc(N3CCNC3=O)cc2)nc1N` [Cpd 113, 1-[4-[[5-amino-1-[(3-methyl-2-thienyl)carbonyl]-1H-1,2,4-triazol-3-yl]amino]phenyl]-2-imidazolidinone], the 50% inhibitory concentration (IC50) stood at 318 nM in assay [1] and 281 nM in the assay with HCT-116 colon carcinoma.
The like results for `Cc1ccsc1C(=O)n1nc(Nc2ccc(N3CCCS3(=O)=O)cc2)nc1N` [Cpd 116, N^3-[4-(1,1-dioxido-2-isothiazolidinyl)phenyl]-1-[(3-methyl-2-thienyl)carbonyl]-1H-1,2,4-triazole-3,5-diamine] were, in that order, more than 1000 nM and 349 nM.
In the case of `Nc1nc(Nc2ccc(N3CCCS3(=O)=O)cc2)nn1C(=O)c1c(F)cccc1F` [Cpd 117], the IC50 in assay [1] stood at 13500 nM; in the assay on HCT-116 colon carcinoma, 1120 nM.
`Nc1nc(Nc2ccc(S(=O)(=O)Nc3ccccn3)cc2)nn1C(=O)c1c(F)cccc1F` [Cpd 118, 4-[[5-amino-1-(2,6-difluorobenzoyl)-1H-1,2,4-triazol-3-yl]amino]-N-(2-pyridinyl)-benzenesulfonamide]: the IC50 in assay [1] was more than 100000 nM; with HCT-116 colon carcinoma, 1170 nM.

As usually defined, the IC50 is the concentration at which inhibition is half-maximal.
